Experimental data as given in ChEMBL document CHEMBL3864139, “Phenylindenone isomers as divergent modulators of p38α MAP kinase” (Bioorg Med Chem Lett, 2016).
Activity calls are given as the source filed them. No cut-off for these calls is given here.

Key:
[1] = molecular target: T1, Mitogen-activated protein kinase 14 (Homo sapiens, UniProt Q16539); experiment: Inhibition of human recombinant full length GST-tagged MAPK14 phosphorylation expressed in Escherichia coli in presence of 500 uM of ATP by direct Z-LITE assay
T1 sequence (Q16539 whole entry): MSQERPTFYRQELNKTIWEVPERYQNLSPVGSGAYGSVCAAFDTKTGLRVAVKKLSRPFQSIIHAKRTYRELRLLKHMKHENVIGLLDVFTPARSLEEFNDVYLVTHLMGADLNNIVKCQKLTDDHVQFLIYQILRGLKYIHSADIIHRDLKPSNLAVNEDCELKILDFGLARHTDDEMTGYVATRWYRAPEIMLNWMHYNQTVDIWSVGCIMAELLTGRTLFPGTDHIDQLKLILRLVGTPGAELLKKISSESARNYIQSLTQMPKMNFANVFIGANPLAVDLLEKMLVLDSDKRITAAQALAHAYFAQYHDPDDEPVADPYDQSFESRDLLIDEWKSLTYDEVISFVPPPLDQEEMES

[2] = molecular target: T1, Mitogen-activated protein kinase 14; experiment: Inhibition of human recombinant full length GST-tagged MAPK14 phosphorylation expressed in Escherichia coli in presence of 100 uM of ATP by direct Z-LITE assay
[3] = molecular target: T1, Mitogen-activated protein kinase 14; experiment: Activation of human recombinant full length GST-tagged MAPK14 expressed in Escherichia coli assessed as increase in MAPK14 phosphorylation at 10 uM in presence of 500 uM of ATP by direct Z-LITE assay relative to control
[4] = molecular target: T1, Mitogen-activated protein kinase 14; experiment: Activation of human recombinant full length GST-tagged MAPK14 expressed in Escherichia coli assessed as increase in MAPK14 phosphorylation at 10 to 10000 nM in presence of 500 uM of ATP by direct Z-LITE assay

Row | SMILES | IC50 [1] [nM] | IC50 [2] [nM] | Activity [3] [%] | Activity [4]
1 | O=C1C(c2ccc(F)cc2)=C(c2ccncc2)c2ccccc21 | 1350 | 899 | – | –
2 | O=C1C(c2ccncc2)=C(c2ccc(F)cc2)c2ccccc21 | – | – | 40 to 50 | Active
